# Reference: patent publication US20170298056A1, “SMALL MOLECULE INHIBITORS OF HIV-1 ENTRY AND METHODS OF USE THEREOF” (Dana-Farber Cancer Institute, Inc., priority 2014, published 2017)
# How the values were obtained:
# HIV-1HXBc2 = experiment: Viral infection assay, CXCR4-tropic virus, Cf2Th-CD4/CXCR4 cells; type: cell-based; settings: HIV-1HXBc2, Cf2Th cells expressing CD4 and CXCR4
# HIV-1JR-FL = experiment: Infection of human PBMC by HIV-1JR-FL; type: cell-based; settings: HIV-1JR-FL infection of human PBMC
# Method: Peripheral blood mononuclear cells (PBMC). Human blood was purchased from Research Blood Components, who obtained a consent firm from each donor, according to the American Association of Blood Banks guidelines, PBMC were isolated from the whole blood using a Ficoll-Paque gradient (Ficoll-Paque PLUS, Amersham Biosciences) and activated at concentration of 10^6 live cells/ml for 3 days in RPMI-PBMC medium (RPMI-1640 supplemented with 20% FBS, 10% IL-2 (Hemagen, Columbia, Md.), 100 μg/ml primocin (InvivoGen, San Diego, Calif.)) with 4 μg/ml phytohemagglutinin (Sigma-Aldrich, St. Louis, Mo.). In some cases, cells were frozen, thawed and activated prior to the assay.
# Viral infection assay. Each test compound was serially diluted in DMSO in a 96-well B&W isoplate (PerkinElmer, Boston, Mass.) using an HP D300 Digital Dispenser, to a final volume of 450 nl. DMSO was used as a control. […] The activity of the firefly luciferase, which was used as a reporter protein in the system, was measured with a Centro LB 960 luminometer (Berthold Technologies, Oak Ridge, Tenn.). One hundred microliters of assay buffer (15 mM MgSO4, 15 mM KH2PO4/K2HPO4 pH 7.8, 1 mM ATP and 1 mM DTT) was injected to each well, followed by a 50 μl injection of 1 mM Dluciferin potassium salt (BD Pharmingen, San Jose, Calif.); luminescence was measured for 2 sec. […]
# Cf2Th-CD4/CCR5 cells = experiment: Viability assay (CellTiterGlo), CD4/CCR5-expressing target cells; type: cell-based; settings: read-out: half-maximal cytotoxic concentration (CC50)
# Method: (§1) Viability Assay. As part of the secondary screen, cells were incubated for ˜20 hours in 384-well plates in a final volume of 45 μl growth medium at 37° C. The plate was equilibrated to room temperature, 15 μl of CellTiterGlo (Promega) was added to each well and luminescence was measured as described above. The viability assay with 18A was done in parallel to the viral infection assay for the same length of time. 18A was diluted using an HP D300 Digital Dispenser in a 96-well B&W isoplate and cells were added. After incubation of 26-30 hours (Cf2Th cells) or 40-44 hours (PBMC). 30 μl (Cf2Th cells) or 100 μl (PBMC) of CellTiterGlo was added and luminescence was measured as described above.
# PBMC = experiment: Viability assay (CellTiterGlo), PBMC; type: cell-based; settings: human PBMC, range of tested concentrations
# Method: as §1
# CCR5 = experiment: Binding of soluble gp120 to Cf2Th-CCR5 cells (flow cytometry); parameters: species or system human; settings: absence and presence of soluble CD4
# Method: Binding of soluble JR-FL gp120 to CCR5 was tested by incubating 1 million Cf2Th-CCR5 cells with 20 μg/mL purified gp120 in the presence or absence of 20 μg/mL sCD4 for 1 hour. After two washes, the cells were incubated with the 2G12 antibody followed by Allophycocyanin-conjugated F(ab′)2 fragment donkey anti-human IgG antibody to detect bound gp120. The cells were analyzed by FACS. All procedures were performed at room temperature.
# [1] = test system: HIV-1JR-FL E168K+N188AΔCT Env trimer; experiment: PG9 antibody binding to cell-surface Env trimer (flow cytometry)
# Method: (§2) Flow cytometry. […] After 48-72 hours, cells were detached with 5 mM EDTA/PBS and between 0.5-1 million cells were briefly incubated with various concentrations of 18A and then with or without the indicated concentrations of sCD4. C34-Ig (at a final concentration of 20 μg/ml) or a specified antibody (at final concentration of 1 μg/ml) was added to the cells. […] Cells were washed twice and analyzed with a BD FACSCanto II flow cytometer (BD Biosciences). For analysis of resistant mutants (FIG. 5e-g), the measurements were normalized for the level of sCD4 binding of each mutant, and the response of each mutant was further normalized to that of the wild-type HIV-1JR-FL E168K+N188AΔCT Env (herein designated WTKA). […] The sCD4 IC50/sCD4 binding ratio (FIGS. 4c and e) was calculated as follows. Binding of sCD4 to different envelope mutants was measured by flow cytometry and normalized first to 2G12 binding to account for potentially different Env expression levels, and then to sCD4 binding to the wild-type HIV-1JR-FL Env. The IC50 of sCD4 for inhibition of virus infection by each mutant Env was divided by the normalized sCD4 binding to Env-expressing cells to calculate the sCD4 IC50/sCD4 binding value.
# [2] = test system: cell-surface HIV-1JR-FL WTKA Env; experiment: Binding of 17b, 19b, 2G12, PGT121 antibodies to cell-surface Env (flow cytometry)
# Method: as §2
smiles,measurement,setting,value
O=C(N/N=C/c1ccc(O)cc1)Nc1cccc2nsnc12 [Compound 18A],IC50,HIV-1HXBc2,~25 µM
same,IC50,HIV-1JR-FL,0.4 µM
same,CC50,Cf2Th-CD4/CCR5 cells,44 µM
same,effect on viability of the cells,PBMC,No significant effect
same,effect on gp120 binding to CCR5,CCR5,No effect
same,PG9 binding,"[1]; 18A added prior to sCD4 incubation, 37.6% without sCD4, 6.6% with sCD4 alone",24.1%
same,basal level of PG9 binding,[1]; absence of sCD4,did not affect
same,"binding of 19b and 2G12, sCD4-induced decrease of PGT121 binding",[2],No significant effect
same,17b binding to cell surface-expressed Env trimer,"[2]; in the presence of 18A, no sCD4",reduction in 17b binding
